According to patent US10857246B2, “Nuclear imaging and radiotherapeutics agents targeting carbonic anhydrase IX and uses thereof” (THE JOHNS HOPKINS UNIVERSITY, priority 2015, dated 2020):
Entries after “also recorded” stand apart in the source; their conditions may differ.

Legend:
CAIX = biological target: T1, CAIX (Homo sapiens, UniProt Q16790); experiment: CAIX specific uptake in vitro; format: cell-based
T1 construct: host or cells: ccRCC tumours in patients

SK-RC-52 xenografts = experiment: Radio-therapy of mice bearing SK-RC-52 xenografts; format: in vivo; conditions: 11.1 MBq and 18.5 MBq i.v., n=4
[1] = system: CAIX-expressing SK-RC-52 tumors; experiment: Biodistribution in mice bearing SK-RC-52 xenografts; format: in vivo; conditions: 740 kBq i.v.
Procedure: Animal experiments were performed in accordance with protocols approved by the Johns Hopkins Animal Care and Use Committee (ACUC). Six-week-old female NOD/SCID mice were purchased from the Animal Resource Core of the Sidney Kimmel Comprehensive Cancer Center of Johns Hopkins and were subcutaneously injected in the lower left flank or upper right flank with 1×10^6 SK-RC-52 cells in RPMI 1640 GlutaMAX™ media (Life Technologies, Frederick, Md.) supplemented with 1% fetal bovine serum (FBS). Mice were monitored for tumor size and used for SPECT/CT imaging when the size of the tumor reached 100 mm^3.
Mice bearing SK-RC-52 xenografts at lower left flank were injected intravenously with 740 kBq (20 μCi) of [^111In]XYIMSR-01, or [^177Lu]XYIMSR-01 in 200 μL of PBS. For competitive blocking, same tumor bearing mice were injected with 740 kBq (20 μCi) of [^111In]XYIMSR-01 and 200 nmole of 8 in 200 μL of PBS. At 1 h, 4 h, 8 h, 24 h and 48 h post-injection, mice were sacrificed by cervical dislocation and the blood was immediately collected by cardiac puncture. Heart, lungs, pancreas, spleen, fat, brain, muscle, small intestines, liver, stomach, kidney, urinary bladder, and tumor were collected. Each organ was weighed and the tissue radioactivity was measured with an automated gamma counter (1282 Compugamma CS, Pharmacia/LKBNuclear, Inc., Mt. Waverly, Vic. Australia). The percentage of injected dose per gram of tissue (% ID/g) was calculated by comparison with samples of a standard dilution of the initial dose. All measurements were corrected for radioactive decay.
Data were expressed as mean±standard deviation (SD). Prism software (GraphPAD, San Diego, Calif.) was used to determine statistical significance. Statistical significance was calculated using a paired t test. P-values <0.0001 were considered significant.
Mice bearing SK-RC-52 xenografts within the lower left flank were injected intravenously with 740 kBq (20 μCi) of [Al^18F]XYIMSR-04 in 200 μL of PBS. At specific 1 hour time point mentioned in the paper, mice (n=5) were sacrificed by cervical dislocation and the blood was immediately collected by cardiac puncture. Heart, lungs, pancreas, spleen, fat, brain, muscle, small intestines, liver, bone, stomach, kidney, urinary bladder, and tumor were collected. Each organ was weighed and the tissue radioactivity was measured with an automated gamma counter (1282 Compugamma CS, Pharmacia/LKBNuclear, Inc., Mt. Waverly, Vic. Australia). The percentage of injected dose per gram of tissue (% ID/g) was calculated by comparison with samples of a standard dilution of the initial dose. All measurements were corrected for radioactive decay. Data were expressed as mean±standard deviation (SD). Prism software (GraphPAD, San Diego, Calif.) was used to determine statistical significance. Statistical significance was calculated using a paired t test. P-values <0.0001 were considered significant.
Mice bearing SK-RC-52 xenografts within the upper right flank were injected intravenously with 740 kBq (20 μCi) of [^64Cu]XYIMSR-06 in 200 μL of PBS. For in vivo competition (binding specificity) studies, tumor-bearing mice were injected with 740 kBq (20 μCi) of [^64Cu]XYIMSR-06 and 200 nmole of 8 in 200 μL of PBS concurrently. At specific times after injection (1 h, 4 h, 8 h and 24 h), mice (n=5) were sacrificed by cervical dislocation with blood immediately collected by cardiac puncture. Heart, lungs, pancreas, spleen, fat, brain, muscle, small intestines, liver, stomach, kidney, urinary bladder, and tumor were also collected. Each organ was weighed and the tissue radioactivity was measured with an automated gamma counter (1282 Compugamma CS, Pharmacia/LKBNuclear, Inc., Mt. Waverly, Vic. Australia). The percentage of injected dose per gram of tissue (% ID/g) was calculated by comparison with samples of a standard dilution of the initial dose. All measurements were corrected for radioactive decay. Data were expressed as mean±standard deviation (SD). […]

CC(CCC(=O)N[C@@H](CC(=O)N[C@@H](CC(=O)N[C@@H](CCCCn1cc(CCCC(=O)Nc2nnc(S(N)(=O)=O)s2)nn1)C(=O)NCCOCCOCCNC(=O)CN1CCN(CC(=O)[O-])CCN(CC(=O)[O-])CCN(CC(=O)[O-])CC1)C(=O)O)C(=O)O)(c1ccc(O)cc1)c1ccc(O)cc1.[177Lu+3] [[^177Lu]XYIMSR-01]
Uptake in vitro (CAIX): CAIX specific uptake | Tumor growth compared with control non-treated mice (SK-RC-52 xenografts): Delays in tumor growth; also recorded: significant therapeutic effect in controlling tumor growth | Biodistribution Bladder ([1]; 1 h post-injection): 26.55 % ID/g | Biodistribution Blood ([1]; 1 h post-injection): 0.55 % ID/g | Biodistribution Brain ([1]; 1 h post-injection): 0.49 % ID/g | Biodistribution Fat ([1]; 1 h post-injection): 1.07 % ID/g | Biodistribution Heart ([1]; 1 h post-injection): 3.59 % ID/g | Biodistribution Kidney ([1]; 1 h post-injection): 40.77 % ID/g | Biodistribution Liver ([1]; 1 h post-injection): 4.15 % ID/g | Biodistribution Lung ([1]; 1 h post-injection): 23.72 % ID/g | Biodistribution Muscle ([1]; 1 h post-injection): 1.42 % ID/g | Biodistribution Pancreas ([1]; 1 h post-injection): 2.03 % ID/g | Biodistribution Small intestine ([1]; 1 h post-injection): 6.11 % ID/g | Biodistribution Spleen ([1]; 1 h post-injection): 0.29 % ID/g | Biodistribution Stomach ([1]; 1 h post-injection): 12.20 % ID/g | Biodistribution Tumor ([1]; 1 h post-injection): 26.91 % ID/g | Tumor/Blood ratio ([1]; 1 h post-injection): 47.9 | Tumor/Kidney ratio ([1]; 1 h post-injection): 0.6 | Tumor/Muscle ratio ([1]; 1 h post-injection): 18.8 | Biodistribution Bladder ([1]; 4 h post-injection): 6.60 % ID/g | Biodistribution Blood ([1]; 4 h post-injection): 0.18 % ID/g | Biodistribution Brain ([1]; 4 h post-injection): 0.33 % ID/g | Biodistribution Fat ([1]; 4 h post-injection): 0.56 % ID/g | Biodistribution Heart ([1]; 4 h post-injection): 1.52 % ID/g | Biodistribution Kidney ([1]; 4 h post-injection): 19.17 % ID/g | Biodistribution Liver ([1]; 4 h post-injection): 1.79 % ID/g | Biodistribution Lung ([1]; 4 h post-injection): 10.35 % ID/g | Biodistribution Muscle ([1]; 4 h post-injection): 0.65 % ID/g | Biodistribution Pancreas ([1]; 4 h post-injection): 0.99 % ID/g | Biodistribution Small intestine ([1]; 4 h post-injection): 2.64 % ID/g | Biodistribution Spleen ([1]; 4 h post-injection): 0.15 % ID/g | Biodistribution Stomach ([1]; 4 h post-injection): 6.06 % ID/g | Biodistribution Tumor ([1]; 4 h post-injection): 26.28 % ID/g | Tumor/Blood ratio ([1]; 4 h post-injection): 150.3 | Tumor/Kidney ratio ([1]; 4 h post-injection): 1.4 | Tumor/Muscle ratio ([1]; 4 h post-injection): 43.7 | Biodistribution Bladder ([1]; 8 h post-injection): 6.00 % ID/g | Biodistribution Blood ([1]; 8 h post-injection): 0.16 % ID/g | Biodistribution Brain ([1]; 8 h post-injection): 0.44 % ID/g | Biodistribution Fat ([1]; 8 h post-injection): 0.46 % ID/g | Biodistribution Heart ([1]; 8 h post-injection): 1.49 % ID/g | Biodistribution Kidney ([1]; 8 h post-injection): 18.99 % ID/g | Biodistribution Liver ([1]; 8 h post-injection): 1.87 % ID/g | Biodistribution Lung ([1]; 8 h post-injection): 8.87 % ID/g | Biodistribution Muscle ([1]; 8 h post-injection): 0.47 % ID/g | Biodistribution Pancreas ([1]; 8 h post-injection): 1.03 % ID/g | Biodistribution Small intestine ([1]; 8 h post-injection): 3.67 % ID/g | Biodistribution Spleen ([1]; 8 h post-injection): 0.29 % ID/g | Biodistribution Stomach ([1]; 8 h post-injection): 6.15 % ID/g | Biodistribution Tumor ([1]; 8 h post-injection): 27.48 % ID/g | Tumor/Blood ratio ([1]; 8 h post-injection): 178.6 | Tumor/Kidney ratio ([1]; 8 h post-injection): 1.5 | Tumor/Muscle ratio ([1]; 8 h post-injection): 65.0 | Biodistribution Bladder ([1]; 24 h + block (200 nmole of 8)): 0.73 % ID/g | Biodistribution Blood ([1]; 24 h + block (200 nmole of 8)): 0.04 % ID/g | Biodistribution Brain ([1]; 24 h + block (200 nmole of 8)): 0.04 % ID/g | Biodistribution Fat ([1]; 24 h + block (200 nmole of 8)): 0.03 % ID/g | Biodistribution Heart ([1]; 24 h + block (200 nmole of 8)): 0.08 % ID/g | Biodistribution Kidney ([1]; 24 h + block (200 nmole of 8)): 1.54 % ID/g | Biodistribution Liver ([1]; 24 h + block (200 nmole of 8)): 0.46 % ID/g | Biodistribution Lung ([1]; 24 h + block (200 nmole of 8)): 0.73 % ID/g | Biodistribution Muscle ([1]; 24 h + block (200 nmole of 8)): 0.03 % ID/g | Biodistribution Pancreas ([1]; 24 h + block (200 nmole of 8)): 0.05 % ID/g | Biodistribution Small intestine ([1]; 24 h + block (200 nmole of 8)): 0.18 % ID/g | Biodistribution Spleen ([1]; 24 h + block (200 nmole of 8)): 0.38 % ID/g | Biodistribution Stomach ([1]; 24 h + block (200 nmole of 8)): 0.21 % ID/g | Biodistribution Tumor ([1]; 24 h + block (200 nmole of 8)): 1.70 % ID/g | Tumor/Blood ratio ([1]; 24 h + block (200 nmole of 8)): 42.0 | Tumor/Kidney ratio ([1]; 24 h + block (200 nmole of 8)): 1.4 | Tumor/Muscle ratio ([1]; 24 h + block (200 nmole of 8)): 58.6 | Biodistribution Bladder ([1]; 24 h post-injection): 1.29 % ID/g | Biodistribution Blood ([1]; 24 h post-injection): 0.02 % ID/g | Biodistribution Brain ([1]; 24 h post-injection): 0.28 % ID/g | Biodistribution Fat ([1]; 24 h post-injection): 0.05 % ID/g | Biodistribution Heart ([1]; 24 h post-injection): 0.28 % ID/g | Biodistribution Kidney ([1]; 24 h post-injection): 3.11 % ID/g | Biodistribution Liver ([1]; 24 h post-injection): 0.47 % ID/g | Biodistribution Lung ([1]; 24 h post-injection): 1.48 % ID/g | Biodistribution Muscle ([1]; 24 h post-injection): 0.10 % ID/g | Biodistribution Pancreas ([1]; 24 h post-injection): 0.16 % ID/g | Biodistribution Small intestine ([1]; 24 h post-injection): 0.96 % ID/g | Biodistribution Spleen ([1]; 24 h post-injection): 0.20 % ID/g | Biodistribution Stomach ([1]; 24 h post-injection): 1.02 % ID/g | Biodistribution Tumor ([1]; 24 h post-injection): 12.51 % ID/g | Biodistribution Bladder ([1]; 48 h + block (200 nmole of 8)): 0.28 % ID/g | Biodistribution Blood ([1]; 48 h + block (200 nmole of 8)): 0.04 % ID/g | Biodistribution Brain ([1]; 48 h + block (200 nmole of 8)): 0.02 % ID/g | Biodistribution Fat ([1]; 48 h + block (200 nmole of 8)): 0.02 % ID/g | Biodistribution Heart ([1]; 48 h + block (200 nmole of 8)): 0.04 % ID/g | Biodistribution Kidney ([1]; 48 h + block (200 nmole of 8)): 0.39 % ID/g | Biodistribution Liver ([1]; 48 h + block (200 nmole of 8)): 0.23 % ID/g | Biodistribution Lung ([1]; 48 h + block (200 nmole of 8)): 0.18 % ID/g | Biodistribution Muscle ([1]; 48 h + block (200 nmole of 8)): 0.01 % ID/g | Biodistribution Pancreas ([1]; 48 h + block (200 nmole of 8)): 0.02 % ID/g | Biodistribution Small intestine ([1]; 48 h + block (200 nmole of 8)): 0.05 % ID/g | Biodistribution Spleen ([1]; 48 h + block (200 nmole of 8)): 0.15 % ID/g | Biodistribution Stomach ([1]; 48 h + block (200 nmole of 8)): 0.09 % ID/g | Biodistribution Tumor ([1]; 48 h + block (200 nmole of 8)): 0.65 % ID/g | Tumor/Blood ratio ([1]; 48 h + block (200 nmole of 8)): 42.7 | Tumor/Kidney ratio ([1]; 48 h + block (200 nmole of 8)): 1.7 | Tumor/Muscle ratio ([1]; 48 h + block (200 nmole of 8)): 62.5 | Biodistribution Bladder ([1]; 48 h post-injection): 0.20 % ID/g | Biodistribution Blood ([1]; 48 h post-injection): 0.04 % ID/g | Biodistribution Brain ([1]; 48 h post-injection): 0.17 % ID/g | Biodistribution Fat ([1]; 48 h post-injection): 0.03 % ID/g | Biodistribution Heart ([1]; 48 h post-injection): 0.12 % ID/g | Biodistribution Kidney ([1]; 48 h post-injection): 0.76 % ID/g | Biodistribution Liver ([1]; 48 h post-injection): 0.19 % ID/g | Biodistribution Lung ([1]; 48 h post-injection): 0.90 % ID/g | Biodistribution Muscle ([1]; 48 h post-injection): 0.04 % ID/g | Biodistribution Pancreas ([1]; 48 h post-injection): 0.06 % ID/g | Biodistribution Small intestine ([1]; 48 h post-injection): 0.20 % ID/g | Biodistribution Spleen ([1]; 48 h post-injection): 0.13 % ID/g | Biodistribution Stomach ([1]; 48 h post-injection): 0.35 % ID/g | Biodistribution Tumor ([1]; 48 h post-injection): 5.82 % ID/g | Tumor/Blood ratio ([1]; 48 h post-injection): 200.2 | Tumor/Kidney ratio ([1]; 48 h post-injection): 7.1 | Tumor/Muscle ratio ([1]; 48 h post-injection): 141.5
